The values below are quoted from earlier work in PubChem BioAssay AID1259410 (Chemical Carcinogenesis Research Information System (CCRIS), 2018).

For the series, the system named is rodent tumor promotion studies, tumor incidence. As to the kind of experiment: CCRIS tumor promotion studies.

Each structure is given as a SMILES string.

In the case of `OCc1c[nH]c2ccccc12`, the outcome runs as follows: (Carcinogen: DIETHYLNITROSAMINE, 55-18-5, N-METHYL-N-NITROSOUREA, 684-93-5, DIHYDROXY-DI-N-PROPYLNITROSAMINE, 53069-64-6, Carcinogen: DIETHYLNITROSAMINE, 55-18-5, N-METHYL-N-NITROSOUREA, 684-93-5, DIHYDROXY-DI-N-PROPYLNITROSAMINE, 53069-64-6, Doses [Carcinogen]: 100 MG/KG BW DEN ONCE THEN 20 MG/KG BW MNU ONCE ON DAYS 5, 8, 11, AND 14 FOLLOWED BY 0.1% DHEN IN DRINKING WATER FOR 2 W, Doses [Promoter]: 0, 0.25% IN DIET FOR 20 WK BEGINNING POST CARCINOGEN TREATMENT (STUDY DURATION: 52 WK), Route [Carcinogen]: INTRAPERITONEAL, INTRAPERITONEAL, ORAL, Route [Carcinogen]: INTRAPERITONEAL, INTRAPERITONEAL, ORAL, Route [Promoter]: ORAL, Species: RAT, Strain/Sex: SPRAGUE-DAWLEY/MALE) “thyroid gland: follicular cell adenoma or carcinoma”; (Carcinogen: DIETHYLNITROSAMINE, 55-18-5, N-METHYL-N-NITROSOUREA, 684-93-5, DIHYDROXY-DI-N-PROPYLNITROSAMINE, 53609-64-6, Carcinogen: DIETHYLNITROSAMINE, 55-18-5, N-METHYL-N-NITROSOUREA, 684-93-5, DIHYDROXY-DI-N-PROPYLNITROSAMINE, 53609-64-6, Doses [Carcinogen]: 100 MG/KG BW DEN ONCE, 20 MG/KG BW MNU 2/WK FOR 2 WK, THEN 0.1% DHPN IN DRINKING WATER FOR 2 WK, Doses [Promoter]: O, 0.25% IN DIET FOR 20 WK BEGINNING POST CARCINOGEN TREATMENT (STUDY DURATION: 52 WK), Route [Carcinogen]: INTRAPERITONEAL, INTRAPERITONEAL, ORAL, Route [Carcinogen]: INTRAPERITONEAL, INTRAPERITONEAL, ORAL, Route [Promoter]: ORAL, Species: RAT, Strain/Sex: SPRAGUE-DAWLEY/MALE) “thyroid gland: adenoma and adenocarcinoma”; (Doses [Carcinogen]: 0.5 PPM FOR 30 MIN, Doses [Promoter]: 0, 1000 PPM IN DIET BEGINNING 14 WK POST CARCINOGEN DOSE (STUDY DURATION: 12 MO), Route [Carcinogen]: IMMERSION, Route [Promoter]: ORAL, Species: FISH, Strain/Sex: RAINBOW TROUT) “liver: tumor”; (Doses [Carcinogen]: 12.5 PPB IN WATER FOR 30 MIN, Doses [Promoter]: 0, 2000 PPM IN DIET BEGINNING 4 WK POST CARCINOGEN DOSE AND CONTINUING FOR DURATION OF STUDY (STUDY DURATION: 36 WK), Route [Carcinogen]: IMMERSION, Route [Promoter]: ORAL, Species: FISH, Strain/Sex: RAINBOW TROUT) “liver: tumor”; (Doses [Carcinogen]: 12.5 PPB IN WATER FOR 30 MIN, Doses [Promoter]: 0, 2000 PPM IN DIET BEGINNING 12 WK POST CARCINOGEN DOSE AND CONTINUING FOR 12 WK FOLLOWED BY CONTROL DIET FOR 12 WK (ST, Route [Carcinogen]: IMMERSION, Route [Promoter]: ORAL, Species: FISH, Strain/Sex: RAINBOW TROUT) “liver: tumor”; (Doses [Carcinogen]: 12.5 PPB IN WATER FOR 30 MIN, Doses [Promoter]: 0, 2000 PPM IN DIET BEGINNING 12 WK POST CARCINOGEN DOSE AND CONTINUING FOR DURATION OF STUDY (STUDY DURATION: 36 WK), Route [Carcinogen]: IMMERSION, Route [Promoter]: ORAL, Species: FISH, Strain/Sex: RAINBOW TROUT) “liver: tumor”. Besides, the outcome is, setting by setting: (Doses [Carcinogen]: 12.5 PPB IN WATER FOR 30 MIN, Doses [Promoter]: 0, 2000 PPM IN DIET FOR 24 WK BEGINNING POST CARCINOGEN DOSE (STUDY DURATION: 36 WK), Route [Carcinogen]: IMMERSION, Route [Promoter]: ORAL, Species: FISH, Strain/Sex: RAINBOW TROUT) “liver: tumor”; (Doses [Carcinogen]: 12.5 PPB IN WATER FOR 30 MIN, Doses [Promoter]: 0, 2000 PPM IN DIET FOR 36 WK BEGINNING POST CARCINOGEN DOSE (STUDY DURATION: 36 WK), Route [Carcinogen]: IMMERSION, Route [Promoter]: ORAL, Species: FISH, Strain/Sex: RAINBOW TROUT) “liver: tumor”; (Doses [Carcinogen]: 50-250 PPM IN WATER FOR 30 MIN, Doses [Promoter]: 0, 500, 750, 1000, 1250 PPM IN DIET BEGINNING 3 MO POST CARCINOGEN TREATMENT (STUDY DURATION: 13 MO), Doses [Promoter]: 0, 500, 750, 1000, 1250 PPM IN DIET BEGINNING 3 MO POST CARCINOGEN TREATMENT (STUDY DURATION: 13 MO), Route [Carcinogen]: IMMERSION, Route [Promoter]: ORAL, Species: FISH, Strain/Sex: RAINBOW TROUT/MALE, FEMALE) “liver: tumor”; (Doses [Carcinogen]: 50 PPB IN WATER FOR 30 MIN, Doses [Promoter]: 0, 2000 PPM IN DIET BEGINNING POST CARCINOGEN DOSE AND ADMINISTERED 2 D/WK FOR DURATION OF STUDY (STUDY DURATION: 36 WK), Route [Carcinogen]: IMMERSION, Route [Promoter]: ORAL, Species: FISH, Strain/Sex: RAINBOW TROUT) “liver: tumor”; (Doses [Carcinogen]: 50 PPB IN WATER FOR 30 MIN, Doses [Promoter]: 0, 2000 PPM IN DIET BEGINNING POST CARCINOGEN DOSE AND ADMINISTERED FOR 1 WK ALTERNATING WEEKLY WITH CONTROL DIET (STUDY, Route [Carcinogen]: IMMERSION, Route [Promoter]: ORAL, Species: FISH, Strain/Sex: RAINBOW TROUT) “liver: tumor”.

Consider `CC/C(=C(\c1ccccc1)c1ccc(OCCN(C)C)cc1)c1ccccc1`, for which, for the setting “Carcinogen: P-DIMETHYLAMINOAZOBENZENE [60-11-7], Doses [Carcinogen]: 0.5% IN DIET FOR 28 WK (STUDY DURATION: 20 WK), Doses [Promoter]: 0, 0.025% IN DIET FOR 25 WK BEGINNING 3 WK POST FIRST CARCINOGEN DOSE (STUDY DURATION: 28 WK), Route [Carcinogen]: ORAL, Route [Promoter]: ORAL, Species: MOUSE, Strain/Sex: CF-1/MALE”, the outcome was “liver: hepatocellular carcinoma”.

As to `CCCCCCCCCc1ccc(O)cc1`, where the note is “Carcinogen: 2',3-dimethyl-4-aminobiphenyl, 13394-86-0, Doses [Carcinogen]: 50 mg/kg every other wk for 10 injections from 7 wks of age, study duration 64 wks, Doses [Promoter]: 0, 25, 250, 2000 ppm in diet from 3 wks of age for 3 wks, Route [Carcinogen]: Subcutaneous, Route [Promoter]: Oral, Species: Rat, Strain/Sex: F344/Male (15-20/Group)”, the outcome is reported as “prostate: adenocarcinoma, no effect”.

`CCCCCCCCCCCCCCCCCC`: the outcome (Carcinogen: 7,12-DIMETHYLBENZ(A)ANTHRACENE, Doses [Carcinogen]: TOP, Route [Carcinogen]: DERMAL, Route [Promoter]: DERMAL, Species: MOUSE, Strain/Sex: MALE,FEMALE) is reported as “integumentary system (skin)”.

With `N#CS`, the outcome (Carcinogen: N-BIS(2-HYDROXYPROPYL)NITROSAMINE, 53609-64-6, Doses [Carcinogen]: 280 MG/100 G/BW ONCE, Doses [Promoter]: 0, 0.5% IN DRINKING WATER FOR 25 WK (STUDY DURATION: 26 WK), Route [Carcinogen]: SUBCUTANEOUS, Route [Promoter]: ORAL, Species: RAT, Strain/Sex: F344/MALE) is recorded as “thyroid: neoplasm”.

As for `Cc1ccc(O)c(C)c1`, the outcome (Carcinogen: 7,12-DIMETHYLBENZ(A)ANTHRACENE, Doses [Carcinogen]: TOP, Route [Carcinogen]: DERMAL, Route [Promoter]: DERMAL, Species: MOUSE, Strain/Sex: FEMALE) was “integumentary system (skin)”.

For `CC/C=C/C=C/C=C/C=C/C=C/OC[C@@H](O)CO`, the outcome (Carcinogen: N-METHYL-N-NITROSOUREA, 684-93-5, Doses [Carcinogen]: 2 NG IN 0.5 ML WATER 3/WK FOR 3 WK, Doses [Promoter]: 0, 400 NG IN 0.5 ML BUFFER 2/WK FOR 24 WK BEGINNING 5 WK POST CARCINOGEN TREATMENT (STUDY DURATION: 32 WK), Route [Carcinogen]: INTRARECTAL, Route [Promoter]: INTRARECTAL, Species: RAT, Strain/Sex: F344/FEMALE) was “colon: carcinoma”.

Turning to `CCCCCC1(CCCCCC(=O)OC2C(C)C3(O)C(C=C(CO)CC4(O)C(=O)C(C)=CC43)C3C(C)(C)C23OC(C)=O)OCC(C)(C)N1[O]` (configuration not stated), the outcome (Carcinogen: 7,12-DIMETHYLBENZ[A]ANTHRACENE, 57-97-6, Doses [Carcinogen]: 100 NMOL ONCE, Doses [Promoter]: 0, 20 NMOL 2/WK FOR 24 WK BEGINNING 1 WK POST CARCINOGEN DOSE (STUDY DURATION: 25 WK), Route [Carcinogen]: DERMAL, Route [Promoter]: DERMAL, Species: MOUSE, Strain/Sex: NMRI/FEMALE) is recorded as “skin: tumor”.

Take `C=C[C@@](C)(CCC=C(C)C)c1ccc2c3c(c[nH]c13)C[C@@H](CO)NC(=O)[C@H](C(C)C)N2C`: the outcome by setting is: (Carcinogen: 7,12-DIMETHYLBENZ[A]ANTHRACENE, 57-97-6, Doses [Carcinogen]: 100 UG IN 0.1 ML ACETONE, Doses [Promoter]: 0, 3 UG IN 0.1 ML ACETONE 2/WK FOR 29 WK BEGINNING 1 WK POST CARCINOGEN DOSE (STUDY DURATION: 30 WK), Route [Carcinogen]: DERMAL, Route [Promoter]: DERMAL, Species: MOUSE) “skin: tumor”; (Carcinogen: DIMETHYLBENZ[A]ANTHRACENE, 57-97-6, Doses [Carcinogen]: 100 UG IN 100 µL ACETONE APPLIED TO THE BACK ONCE, Doses [Promoter]: 2.5 UG IN 100 µL ACETONE APPLIED TO THE BACK FOR 30 WK BEGINNING 1 WK POST CARCINOGEN DOSE (STUDY DURATION: 31 WK), Route [Carcinogen]: DERMAL, Route [Promoter]: DERMAL, Species: MOUSE, Strain/Sex: CD-1/FEMALE) “skin: papilloma”.

Turning to `Nc1nc2ncc(CNc3ccc(C(=O)N[C@@H](CCC(=O)O)C(=O)O)cc3)nc2c(=O)[nH]1`, for the setting “Carcinogen: N-ETHYL-N-(2-HYDROXYETHYL)NITROSAMINE, Doses [Carcinogen]: 0.1% IN DRINKING WATER FOR 1 WK, Doses [Promoter]: 300 MG/KG 1/WK FOR 8 WK THEN 100 MG/KG 1/WK FOR 27 WK, Route [Carcinogen]: ORAL, Route [Promoter]: SUBCUTANEOUS, Species: RAT, Strain/Sex: F344/MALE”, the outcome is given as “kidney: renal cell tumor”.

As to `CCCCCCCC/C=C\CCCCCCCC(=O)OC[C@@H](O)[C@H]1OC[C@H](O)[C@H]1O`, where the note is “Carcinogen: 7,12-DIMETHYLBENZ(A)ANTHRACENE, Doses [Carcinogen]: TOP, Route [Carcinogen]: DERMAL, Route [Promoter]: DERMAL, Species: MOUSE, Strain/Sex: MALE”, the outcome is “integumentary system (skin)”.
